Laboratory results taken from patent US12305162B2, “Method for expanding propagation of Metarhizium rileyi MR006 and use thereof” (priority 2023, dated 2025).

Assays:
Test in all cases: Sub-lethal dose (LC25) of chlorantraniliprole on 2nd instar larvae
Format in all cases: in vivo
Spodoptera frugiperda = tested on: Spodoptera frugiperda
Spodoptera litura = tested on: Spodoptera litura
Helicoverpa armigera = tested on: Helicoverpa armigera

`CNC(=O)c1cc(Cl)cc(C)c1NC(=O)c1cc(Br)nn1-c1ncccc1Cl` [chlorantraniliprole] was tested, and the LC25 value (Spodoptera frugiperda) was 0.006 µg/g, the LC25 value (Spodoptera litura) was 0.008 µg/g and the LC25 value (Helicoverpa armigera) was 0.015 µg/g.
